Experimental findings from PubChem BioAssay AID200 (DTP/NCI, 2004) are described below.

Where “and” joins values, the source holds several entries; their conditions need not be identical. Equal entries are not always repeated. Toxic doses and inconclusive results are not listed.

The subject of the test is B6C3F1 mice, B16 melanoma ip, median survival T/C. As to the kind of experiment: NCI In Vivo Anticancer Drug Screen. Data for tumor model B16 Melanoma (intraperitoneal) in B6C3F1 mice. The following applies: endpoint: median survival time, higher = longer survival. A digest of the protocol: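 Mice bearing transplanted tumor were dosed with compound or vehicle, and survival was recorded. Activity is expressed as the treated-group measurement (T) divided by the vehicle control measurement (C).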

The mark [1] stands for this setting: dose: 4.0 micrograms/kg/injection, schedule: Q01DX009 (ip), vehicle: distilled water + alcohol.
The mark [2] stands for this setting: dose: 8.0 micrograms/kg/injection, schedule: Q01DX009 (ip), vehicle: distilled water + alcohol.
The mark [3] stands for this setting: dose: 16.0 micrograms/kg/injection, schedule: Q01DX009 (ip), vehicle: distilled water + alcohol.
[4] abbreviates: dose: 6.25 mg/kg/injection, schedule: Q01DX009 (ip), vehicle: Klucel (hydroxypropylcellulose) (HPC).
Setting [5] is: dose: 12.5 mg/kg/injection, schedule: Q01DX009 (ip), vehicle: Klucel (hydroxypropylcellulose) (HPC).
The mark [6] stands for this setting: dose: 25.0 mg/kg/injection, schedule: Q01DX009 (ip), vehicle: Klucel (hydroxypropylcellulose) (HPC).
The mark [7] stands for this setting: dose: 25.0 mg/kg/injection, schedule: Q01DX009 (ip), vehicle: saline.
The mark [8] stands for this setting: dose: 50.0 mg/kg/injection, schedule: Q01DX009 (ip), vehicle: saline.
[9] abbreviates: dose: 100.0 mg/kg/injection, schedule: Q01DX009 (ip), vehicle: saline.
The mark [10] stands for this setting: dose: 200.0 mg/kg/injection, schedule: Q01DX009 (ip), vehicle: saline.
The mark [11] stands for this setting: dose: 6.25 mg/kg/injection, schedule: Q01DX009 (ip), vehicle: saline with Tween-80.
[12] abbreviates: dose: 12.5 mg/kg/injection, schedule: Q01DX009 (ip), vehicle: saline with Tween-80.
Where [13] appears, read: dose: 25.0 mg/kg/injection, schedule: Q01DX009 (ip), vehicle: saline with Tween-80.
[14] abbreviates: dose: 50.0 mg/kg/injection, schedule: Q01DX009 (ip), vehicle: saline with Tween-80.
The mark [15] stands for this setting: dose: 100.0 mg/kg/injection, schedule: Q01DX009 (ip), vehicle: Klucel (hydroxypropylcellulose) (HPC).
The mark [16] stands for this setting: dose: 200.0 mg/kg/injection, schedule: Q01DX009 (ip), vehicle: Klucel (hydroxypropylcellulose) (HPC).
[17] abbreviates: dose: 400.0 mg/kg/injection, schedule: Q01DX009 (ip), vehicle: Klucel (hydroxypropylcellulose) (HPC).

As to `COc1cc2cc(c1Cl)N1CC(=O)C(C)(O)C(=O)N(C)C(C)C(=O)OC(CC1=O)C1(C)OC1C(C)C1CC(O)(NC(=O)O1)C(OC)/C=C\C=C(\C)C2OC` (configuration not stated), the T/C was 109 % of control under setting [1]; 93 % of control under setting [2]; 111 % of control under setting [3]; 95 % of control (dose: 32.0 micrograms/kg/injection, schedule: Q01DX009 (ip), vehicle: distilled water + alcohol).
Regarding `O=C(C#Cc1ccccc1)c1ccccc1`, the T/C by setting is: (dose: 3.12 mg/kg/injection, schedule: Q01DX009 (ip), vehicle: Klucel (hydroxypropylcellulose) (HPC)) 100 % of control and 102 % of control; under setting [4], 92 % of control and 102 % of control; under setting [5], 97 % of control and 101 % of control; under setting [6], 90 % of control and 94 % of control.
In the case of `C[CH2][Pb]([CH2]C)([CH2]C)[O]C(=O)COc1ccccc1`, the T/C (dose: 0.38 mg/kg/injection, schedule: Q01DX009 (ip), vehicle: Klucel (hydroxypropylcellulose) (HPC)) was 94 % of control; the T/C (dose: 0.75 mg/kg/injection, schedule: Q01DX009 (ip), vehicle: Klucel (hydroxypropylcellulose) (HPC)) was 105 % of control; the T/C (dose: 1.5 mg/kg/injection, schedule: Q01DX009 (ip), vehicle: Klucel (hydroxypropylcellulose) (HPC)) was 101 % of control; the T/C (dose: 3.0 mg/kg/injection, schedule: Q01DX009 (ip), vehicle: Klucel (hydroxypropylcellulose) (HPC)) is 91 % of control; the T/C (dose: 6.0 mg/kg/injection, schedule: Q01DX009 (ip), vehicle: Klucel (hydroxypropylcellulose) (HPC)) is 97 % of control.
Take `OC1CC2CCCCC2CC1c1ccccc1` (configuration not stated): the T/C reads like this: (dose: 25.0 mg/kg/injection, schedule: Q04DX003 (ip), vehicle: saline with Tween-80) 95 % of control; (dose: 50.0 mg/kg/injection, schedule: Q04DX003 (ip), vehicle: saline with Tween-80) 114 % of control; (dose: 100.0 mg/kg/injection, schedule: Q04DX003 (ip), vehicle: saline with Tween-80) 104 % of control; (dose: 200.0 mg/kg/injection, schedule: Q04DX003 (ip), vehicle: saline with Tween-80) 93 % of control; (dose: 400.0 mg/kg/injection, schedule: Q04DX003 (ip), vehicle: saline with Tween-80) 92 % of control.
Consider `COc1cc2cc(c1Cl)N(C)C(=O)/C=C/C1(C)OC1C(C)C1CC(O)(NC(=O)O1)C(OC)/C=C/C=C(\C)C2OC` (configuration not stated), for which the T/C under setting [1] is 117 % of control, the T/C under setting [2] was 105 % of control and the T/C under setting [3] is 112 % of control.
Take `O=C(O)CC(NC(=O)CP(=O)(O)O)C(=O)O` (configuration not stated): the T/C runs as follows: under setting [7], 160 % of control; (dose: 37.5 mg/kg/injection, schedule: Q01DX005 (ip), vehicle: saline) 121 % of control; (dose: 37.5 mg/kg/injection, schedule: Q01DX005 (iv), vehicle: saline) 119 % of control; under setting [8], 172 % of control; (dose: 75.0 mg/kg/injection, schedule: Q01DX001 (ip), vehicle: saline) 120 % of control; (dose: 75.0 mg/kg/injection, schedule: Q01DX001 (iv), vehicle: saline) 110 % of control. The T/C is, setting by setting: (dose: 75.0 mg/kg/injection, schedule: Q01DX005 (iv), vehicle: saline) 123 % of control; under setting [9], 202 % of control; (dose: 150.0 mg/kg/injection, schedule: Q01DX001 (iv), vehicle: saline) 116 % of control; (dose: 150.0 mg/kg/injection, schedule: Q01DX005 (ip), vehicle: saline) 178 % of control; (dose: 150.0 mg/kg/injection, schedule: Q01DX005 (iv), vehicle: saline) 114 % of control; under setting [10], 226 % of control. The T/C is 115 % of control (dose: 300.0 mg/kg/injection, schedule: Q01DX001 (iv), vehicle: saline) and 163 % of control (dose: 300.0 mg/kg/injection, schedule: Q01DX005 (ip), vehicle: saline).
As to `COC1=C(OC)C(=O)C(C/C=C(\C)CC/C=C(\C)CC/C=C(\C)CC/C=C(\C)CC/C=C(\C)CC/C=C(\C)CC/C=C(\C)CC/C=C(\C)CC/C=C(\C)CCC=C(C)C)=C(C)C1=O`, the T/C is, setting by setting: under setting [11], 91 % of control; under setting [12], 97 % of control and 101 % of control; under setting [13], 93 % of control and 96 % of control; under setting [14], 97 % of control; (dose: 100.0 mg/kg/injection, schedule: Q01DX009 (ip), vehicle: saline with Tween-80) 94 % of control and 98 % of control; (dose: 200.0 mg/kg/injection, schedule: Q01DX009 (ip), vehicle: saline with Tween-80) 87 % of control and 90 % of control.
Consider `COc1ccc(C(=O)C(=O)c2ccc(OC)c(OC)c2)cc1OC`, for which the T/C by setting is: (dose: 1.56 mg/kg/injection, schedule: Q01DX009 (ip), vehicle: saline) 101 % of control; (dose: 3.13 mg/kg/injection, schedule: Q01DX009 (ip), vehicle: saline) 99 % of control; (dose: 6.25 mg/kg/injection, schedule: Q01DX009 (ip), vehicle: saline) 97 % of control.
Turning to `Nc1nc(-c2cccc([N+](=O)[O-])c2)c(Br)c(=O)[nH]1`, the T/C is, setting by setting: under setting [13], 115 % of control; under setting [14], 122 % of control.
Regarding `CC(O)C(NC(=O)OC(C)(C)C)C(=O)O` (configuration not stated), the T/C is, setting by setting: under setting [7], 86 % of control and 100 % of control; under setting [8], 108 % of control and 106 % of control; under setting [9], 108 % of control and 100 % of control; under setting [10], 95 % of control.
For `NC(N)=NC(N)=Nc1ccc(-c2ccc(N=C(N)N=C(N)N)cc2)cc1`, the T/C was 98 % of control (dose: 0.78 mg/kg/injection, schedule: Q01DX009 (ip), vehicle: saline with Tween-80); 107 % of control (dose: 1.56 mg/kg/injection, schedule: Q01DX009 (ip), vehicle: saline with Tween-80); 90 % of control (dose: 3.13 mg/kg/injection, schedule: Q01DX009 (ip), vehicle: saline with Tween-80); 106 % of control under setting [11]; 93 % of control under setting [12].
Take `O=c1ccn(C2OC(CO)C(O)C2O)c(=O)[nH]1` (configuration not stated): the T/C is 97 % of control under setting [5]; 99 % of control under setting [6]; 104 % of control (dose: 50.0 mg/kg/injection, schedule: Q01DX009 (ip), vehicle: Klucel (hydroxypropylcellulose) (HPC)); 95 % of control under setting [15]; 99 % of control under setting [16]; 102 % of control under setting [17]. Besides, the T/C (dose: 800.0 mg/kg/injection, schedule: Q01DX009 (ip), vehicle: Klucel (hydroxypropylcellulose) (HPC)) was 102 % of control.
For `CC(C)(OC(=O)NC(CC(N)=O)C(=O)O)c1ccc(-c2ccccc2)cc1` (configuration not stated), the T/C was 97 % of control under setting [15], 91 % of control under setting [16] and 89 % of control under setting [17].
Take `S=c1c2[nH]cnc2ncn1CCSC1=NC=NC2=NC=NC21` (configuration not stated): the T/C was 98 % of control (dose: 12.5 mg/kg/injection, schedule: Q01DX009 (ip), vehicle: saline); 104 % of control under setting [7]; 92 % of control under setting [8]; 89 % of control (dose: 400.0 mg/kg/injection, schedule: Q01DX009 (ip), vehicle: saline).
As to `CCCCCCCC1C(=O)OC2CC3C(C)=CC(=O)C(O)C3(C)C3C4(O)OCC23C1C(C)C4O` (configuration not stated), the T/C runs as follows: (dose: 1.25 mg/kg/injection, schedule: Q01DX009 (ip), vehicle: Klucel (hydroxypropylcellulose) (HPC)) 156 % of control; (dose: 2.5 mg/kg/injection, schedule: Q01DX009 (ip), vehicle: Klucel (hydroxypropylcellulose) (HPC)) 110 % of control and 91 % of control; (dose: 5.0 mg/kg/injection, schedule: Q01DX009 (ip), vehicle: Klucel (hydroxypropylcellulose) (HPC)) 118 % of control and 97 % of control; (dose: 10.0 mg/kg/injection, schedule: Q01DX009 (ip), vehicle: Klucel (hydroxypropylcellulose) (HPC)) 114 % of control and 250 % of control; (dose: 20.0 mg/kg/injection, schedule: Q01DX009 (ip), vehicle: Klucel (hydroxypropylcellulose) (HPC)) 162 % of control.
On to `O=C(O)C1C2CC3C(C2)C31.[Ag]` (configuration not stated), for which the T/C was 90 % of control under setting [4], 88 % of control under setting [5] and 100 % of control under setting [6].
